We go through two compounds from patent EP0415567A2, “Composition and method for stabilising organic compounds” (QUADRANT BIORESOURCES LIMITED, priority 1989, dated 1991).

The test system of data set [1] is DNA ligase. As to the kind of experiment: Storage stability of dried ATP by DNA ligase assay. The data set is classed as biochemical. The conditions noted are these: ATP at 0.5 mM dried with ligase in trehalose buffer, no acetate as efflorescent salt; 2 weeks at 37°C. From the text:
Using an assay for DNA ligase whioh joins DNA fragments using ATP as an energy source.

The conditions of data set [2]: solutions of 25% wv, in six hours at 5°C; cited from earlier work.

`Nc1ncnc2c1ncn2[C@@H]1O[C@H](COP(=O)(O)OP(=O)(O)OP(=O)(O)O)[C@@H](O)[C@H]1O` [ATP]: the “stability of ATP in the dry state” value in data set [1] is “completely stable”. For the compound `CC1(C)S[C@@H]2[C@H](NC(=O)[C@H](N)c3ccccc3)C(=O)N2[C@H]1C(=O)O` [Ampicillin sodium], the loss of potency in data set [2] is 20%.
